Several values for one entry are separate records, joined by “and”; a condition that tells them apart may be missing. Equal values may be shown once.
How the values were obtained:
[1] = Crystal, Calculated from knudsen effusion weight loss
[2] = molar enthalpy of vaporization or sublimation; details: Crystal, Static calorimetry

Nc1c([N+](=O)[O-])cc(Cl)cc1[N+](=O)[O-] [4-chloro-2,6-dinitroaniline]
Details | molar enthalpy [kcal/mol] | vapor or sublimation pressure
[1], 335.12 K | – | 7.67e-05 kPa and 7.72e-05 kPa and 7.84e-05 kPa
[1], 338.19 K | – | 0.00011 kPa and 0.000108 kPa and 0.000106 kPa
[1], 341.17 K | – | 0.00015 kPa and 0.000145 kPa and 0.000146 kPa
[1], 344.17 K | – | 0.000202 kPa and 0.000201 kPa and 0.000207 kPa
[1], 347.18 K | – | 0.000287 kPa and 0.000284 kPa and 0.000277 kPa
[1], 350.12 K | – | 0.000388 kPa and 0.000386 kPa
[1], 353.12 K | – | 0.00052 kPa and 0.000532 kPa and 0.000527 kPa
[1], 356.17 K | – | 0.000715 kPa and 0.000702 kPa and 0.00071 kPa
[1], 359.16 K | – | 0.000964 kPa and 0.000935 kPa and 0.000922 kPa
[2], 298.15 K | 25.1 | –
[2], 347.1 K | 25.02 | –

Nc1c(Cl)cc([N+](=O)[O-])cc1[N+](=O)[O-] [2-chloro-4,6-dinitrobenzenamine]
Details | molar enthalpy [kcal/mol] | vapor or sublimation pressure
[1], 358.1 K | – | 0.000105 kPa and 0.000103 kPa and 0.00011 kPa
[1], 360.15 K | – | 0.00013 kPa and 0.000133 kPa and 0.000128 kPa
[1], 362.16 K | – | 0.000164 kPa and 0.000161 kPa and 0.000173 kPa
[1], 364.12 K | – | 0.000202 kPa and 0.000198 kPa and 0.000197 kPa
[1], 366.17 K | – | 0.000246 kPa and 0.000248 kPa and 0.00024 kPa
[1], 368.17 K | – | 0.000302 kPa and 0.000297 kPa and 0.000296 kPa
[1], 370.11 K | – | 0.000361 kPa and 0.000368 kPa
[1], 372.08 K | – | 0.000455 kPa and 0.00044 kPa and 0.000426 kPa
[1], 374.14 K | – | 0.00055 kPa and 0.000536 kPa
[1], 376.25 K | – | 0.000684 kPa and 0.000662 kPa and 0.000663 kPa
[1], 378.14 K | – | 0.000816 kPa and 0.000824 kPa and 0.000797 kPa
[1], 380.16 K | – | 0.000996 kPa and 0.000971 kPa and 0.000963 kPa
[2], 298.15 K | 27.5 | –
[2], 369.13 K | 27.3 | –
